Results from patent EP4335840A1, “NEW CONTRAST AGENTS FOR USE IN DIAGNOSTIC IMAGING” (priority 2022, dated 2024).

biological target: T1, OATP1B3 (Homo sapiens, UniProt Q9NPD5); experiment: Uptake into stable transfected OATP1B3 HEK 293 cells; type: cell-based; conditions: 100 µM, 40 min, relative to RC1 (Gd-EOB-DTPA)
T1 sequence (Q9NPD5 1-702): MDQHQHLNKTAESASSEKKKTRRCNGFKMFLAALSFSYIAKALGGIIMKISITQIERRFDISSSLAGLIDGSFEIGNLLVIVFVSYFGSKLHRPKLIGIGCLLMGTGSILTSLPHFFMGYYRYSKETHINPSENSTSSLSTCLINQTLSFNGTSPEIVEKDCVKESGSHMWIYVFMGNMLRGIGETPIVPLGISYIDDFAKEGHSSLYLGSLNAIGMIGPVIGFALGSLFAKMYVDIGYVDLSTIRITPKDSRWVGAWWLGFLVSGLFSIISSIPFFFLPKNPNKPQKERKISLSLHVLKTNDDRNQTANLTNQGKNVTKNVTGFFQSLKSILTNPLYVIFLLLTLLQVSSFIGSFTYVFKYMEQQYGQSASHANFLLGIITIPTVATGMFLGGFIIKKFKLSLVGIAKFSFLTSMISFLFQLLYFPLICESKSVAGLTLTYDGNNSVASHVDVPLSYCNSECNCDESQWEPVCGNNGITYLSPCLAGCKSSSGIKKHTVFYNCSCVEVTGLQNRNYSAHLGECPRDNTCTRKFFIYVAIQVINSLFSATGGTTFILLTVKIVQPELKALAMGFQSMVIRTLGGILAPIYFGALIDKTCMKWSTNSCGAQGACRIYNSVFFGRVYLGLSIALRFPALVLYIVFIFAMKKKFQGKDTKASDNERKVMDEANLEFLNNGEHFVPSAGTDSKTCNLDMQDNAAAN
Protocol: Human transfected OATP1B3 human embryonic kidney 293 cells (OATP1B3 HEK 293, SLCO1B3, Entrez Gene ID: 28234) were used (Leonhardt M et al. Drug Metab Dispos. 2010 Jul;38(7):1024-8). The following culture medium was used: 500 mL DMEM (Dulbecco's Modified Eagle Medium - high Glucose, D6429), 50 mL FCS (fetal bovine serum, Fa. Sigma, F7524), 5.8 mL G418 (Geneticin, Fa. Gibco 10131-027) and 5 mL Pen-Strep. (Penicillin-Streptomycin, Fa. Gibco, Ref 15140-122). Cryopreserved cells were shortly thawed in water bath and diluted in 10 mL warm culture medium (37°C). After medium change the cells were grown for 3d in a 25 cm^2 cell culture flask. After 3 to 5d the cells were transferred into 75 cm^2 flasks. For the splitting of cells these were incubated with 1.5 mL trypsin (Trypsin-EDTA (1x) 0,05%, Ref 25300-054 100ml, Fa. Gibco) for 3-5 min in the incubator (37°C, 5% CO2 and […]). After centrifugation and washing with medium the cells were counted (50 µL cell suspension and 50 µL trypan blue (Trypan Blue Solution, 93595-50ml, Fa. Fluka). Cells were cultured (1×10^5 cells/well) in poly-D-lysine coated 24-well plates (Fa. Corning, Ref: 354414) in 1.5 mL medium per well. After 48 hours in the incubator the medium was changed and 1.5 mL/well sodium butyrate containing medium were added (40 mL culture medium plus 400 µL Na-Butyrate, Fa. Sigma Aldrich B5887-5G, 250 mg in 2.27 mL MilliQ water). After 24 hours in the incubator the medium was vacuumed off and 1.5 mL transport buffer was added and incubated for 10 min. The transport buffer contains the following ingredients: 500 mL HBSS (Hank's balanced salt solution, Hyclone, SH30268.01), 5 mL HEPES buffer (4-(2-hydroxyethyl)-1-piperazine-ethanesulfonic acid, Gibco 15630-056) and 3.9 mL glucose (Sigma, G8270-100, 90 g/200mL MilliQ water). All test items were prepared in transport buffer at a final concentration of 100 µM from stock solutions (180 to 500 mM concentration). The OATP1B3 HEK 293 cells were incubated with test solutions (test item in transport buffer 500 µL) for 40min on a thermoshaker without shaking (PHMP, Fa. Grant Bio). Triplicates were performed for each test item. After incubation the cells were washed with 2 mL of cold PBS (+) buffer (Dulbeccos PBS +, Fa. Gibco). […] As a reference standard Gd-EOB-DTPA (gadoxetate) is used in the same well plate. The OATP1B3 HEK 293 uptake of the test compound is calculated relative to gadoxetate (resulting in the unit % of RC1).

Substance | Uptake into OATP1B3-HEK 293 cells
Gadolinium-2,2',2"-[10-(carboxymethyl)-2-(4-ethoxybenzyl)-1,4,7,10-tetraazacyclododecane-1,4,7-triyl]triacetate [Example 9] | 13 % of RC1
Gadolinium-2,2',2"-[(2S)-2-(4-butoxybenzyl)-10-(carboxymethyl)-1,4,7,10-tetraaza cyclododecane-1,4,7-triyl]triacetate [Example 13] | 383 % of RC1
Gadolinium-2,2',2"-[(2S)-10-(carboxymethyl)-2-(4-ethoxybenzyl)-1,4,7,10-tetraazacyclododecane-1,4,7-triyl]triacetate [Example 11] | 32 % of RC1
Gadolinium-2,2',2"-[(2S)-10-(carboxymethyl)-2-(4-ethoxybenzyl)-1,4,7,10-tetraazacyclododecane-1,4,7-triyl]triacetate [Example 10] | 80 % of RC1
Gadolinium-2,2',2"-[(2S)-2-(4-butoxybenzyl)-10-(carboxymethyl)-1,4,7,10-tetraaza cyclododecane-1,4,7-triyl]triacetate [Example 12] | 66 % of RC1
Gadolinium-2,2',2"-[10-(carboxymethyl)-2-(4-ethoxybenzyl)-1,4,7,10-tetraazacyclododecane-1,4,7-triyl]triacetate [Example 8] | 94 % of RC1

test system: not listed separately; experiment: Relaxivity measurements at 1.41 T in water and human plasma; type: physicochemical; conditions: human plasma, 37°C, normalized to Gd
Protocol: Relaxivity measurements at 1.41 T were performed using a MiniSpec mq60 spectrometer (Bruker Analytik, Karlsruhe, Germany) operating at a resonance frequency of 60 MHz and a temperature of 37°C. The T1 relaxation times were determined using the standard inversion recovery (IR) method with a fixed relaxation delay of at least 5 × T1. The variable inversion time (TI) was calculated automatically by the standard software of the MiniSpec mq60 (8 steps). The T2 measurements were performed by using a Carr-Purcell-Meiboom-Gill (CPMG) pulse sequence, applying a relaxation delay of at least 5 × T1.
Each relaxivity measurement was performed using three different Gd concentrations (3 concentrations between 0.05 and 2 mM). The T1 and T2 relaxation times of the example compounds 1 to 10 were measured in different media for example in water and human plasma. Human plasma preparation: For each experiment fresh blood was taken from a volunteer using 10 mL citrate-tubes (Sarstedt S-Monovette 02.1067.001, 10 mL, Citrate). The 10 mL citrate-tubes were carefully inverted 10 times to mix blood and anticoagulant and centrifuged for 15min at 1811 g at RT (Eppendorf, Centrifuge 5810R).
The relaxivities ri (where i=1, 2) were calculated based on the measured relaxation rates Ri in water and plasma: ri = (Ri−Ri(0))/CGd [formula] where Ri(0) represent the relaxation rate of the respective solvent and CGd the concentration of the compound normalized to the Gadolinium. The Gadolinium concentrations of the investigated solutions were verified by Inductively Coupled Plasma Mass Spectrometry (ICP-MS Agilent 7500a, Waldbronn, Germany). Table 3: Relaxivities of investigated compounds in water and human plasma at 1.41 T and relaxivities of Reference compounds 1-3 (RC1-RC3) at 1.5 T in water and bovine plasma. All values are measured at 37°C and normalized to Gd and given in L mmol-1 s-1.

Substance | r1 human plasma [L/mmol/s]
Gadolinium-2,2',2"-[10-(carboxymethyl)-2-(4-ethoxybenzyl)-1,4,7,10-tetraazacyclododecane-1,4,7-triyl]triacetate [Example 9] | 5.6
Gadolinium-2,2',2"-[(2S)-2-(4-butoxybenzyl)-10-(carboxymethyl)-1,4,7,10-tetraaza cyclododecane-1,4,7-triyl]triacetate [Example 13] | 9.8
Gadolinium-2,2',2"-[(2S)-10-(carboxymethyl)-2-(4-ethoxybenzyl)-1,4,7,10-tetraazacyclododecane-1,4,7-triyl]triacetate [Example 11] | 6.2
Gadolinium-2,2',2"-[(2S)-10-(carboxymethyl)-2-(4-ethoxybenzyl)-1,4,7,10-tetraazacyclododecane-1,4,7-triyl]triacetate [Example 10] | 6.4
Gadolinium-2,2',2"-[(2S)-2-(4-butoxybenzyl)-10-(carboxymethyl)-1,4,7,10-tetraaza cyclododecane-1,4,7-triyl]triacetate [Example 12] | 8.8
Gadolinium-2,2',2"-[10-(carboxymethyl)-2-(4-ethoxybenzyl)-1,4,7,10-tetraazacyclododecane-1,4,7-triyl]triacetate [Example 8] | 6.5

same assay, conditions: water, 37°C, normalized to Gd

Substance | r1 water [L/mmol/s]
Gadolinium-2,2',2"-[10-(carboxymethyl)-2-(4-ethoxybenzyl)-1,4,7,10-tetraazacyclododecane-1,4,7-triyl]triacetate [Example 9] | 4.3
Gadolinium-2,2',2"-[(2S)-2-(4-butoxybenzyl)-10-(carboxymethyl)-1,4,7,10-tetraaza cyclododecane-1,4,7-triyl]triacetate [Example 13] | 5.3
Gadolinium-2,2',2"-[(2S)-10-(carboxymethyl)-2-(4-ethoxybenzyl)-1,4,7,10-tetraazacyclododecane-1,4,7-triyl]triacetate [Example 11] | 4.4
Gadolinium-2,2',2"-[(2S)-10-(carboxymethyl)-2-(4-ethoxybenzyl)-1,4,7,10-tetraazacyclododecane-1,4,7-triyl]triacetate [Example 10] | 4.8
Gadolinium-2,2',2"-[(2S)-2-(4-butoxybenzyl)-10-(carboxymethyl)-1,4,7,10-tetraaza cyclododecane-1,4,7-triyl]triacetate [Example 12] | 4.7
Gadolinium-2,2',2"-[10-(carboxymethyl)-2-(4-ethoxybenzyl)-1,4,7,10-tetraazacyclododecane-1,4,7-triyl]triacetate [Example 8] | 4.7

test system: freshly isolated rat hepatocytes; experiment: Uptake into freshly isolated rat hepatocytes; conditions: 100 µmol Gd/L, 10 min, 37°C, relative to RC1 (Gd-EOB-DTPA)
Protocol: The rat hepatocytes were incubated (2.5 ·10^5 cells/well) for 2.5 to 4h in collagen coated 24-well plates (Fa. Beckton Dickinson Biocoat, cell environments, Collagen I Cellware) in Williams E-medium (Fa. Sigma W1878) in an incubator (37°C, 5% CO2 and 95% oxygen). After incubation the adherent hepatocytes were washed once with 37°C Hepes carbonate transport buffer (500 µL/well). The test items and RC1 were prepared from stock solutions (180 to 500 mM concentration) in Hepes carbonate transport buffer at pH 7.4 to reach a final concentration of 100 µmοl Gd/L. The specific uptake of the test item or RC1 into rat hepatocytes via OATP1 B1 and OATP1 B3 was challenged using a known OATP1B1/1B3 inhibitor (Rifampicine, Fa. Sigma R3501, test item and inhibitor 1:1 each 100 µM final concentration). The prepared rat hepatocyte plates were incubated with test solutions (500 µL/well) at 37°C for 10 min using a thermoshaker (Fa. Grant Bio, PHMP). Triplicates were performed for each test item. After incubating the cells were washed once with cold PBS buffer (Fa. Gibco, Dulbeccos PBS (+)). After washing the intact hepatocytes were lysed by addition of 500 µL cold 0.01 % Triton-X 100 in Millipore water for 1h. […] After 1h 500 µL of 10 nM Terbium ICP-MS standard was added in 2% nitric acid and 0.01% Triton 100 before the Gadolinium concentrations in the lysate were measured using ICP-MS (Agilent 8900, singleQuad, integr. Time 0.3 s, no gas, 5 replicates, Gd m/z 157, Tb m/z 159). As a reference standard RC1 is used in the same well plate. The hepatocyte uptake of the test compound is calculated relative to RC1 (resulting in the unit % of RC1).

Substance | Uptake rat hepatocytes
Gadolinium-2,2',2"-[10-(carboxymethyl)-2-(4-ethoxybenzyl)-1,4,7,10-tetraazacyclododecane-1,4,7-triyl]triacetate [Example 9] | 42 % of RC1
Gadolinium-2,2',2"-[(2S)-2-(4-butoxybenzyl)-10-(carboxymethyl)-1,4,7,10-tetraaza cyclododecane-1,4,7-triyl]triacetate [Example 13] | 137 % of RC1
Gadolinium-2,2',2"-[(2S)-10-(carboxymethyl)-2-(4-ethoxybenzyl)-1,4,7,10-tetraazacyclododecane-1,4,7-triyl]triacetate [Example 11] | 49 % of RC1
Gadolinium-2,2',2"-[(2S)-10-(carboxymethyl)-2-(4-ethoxybenzyl)-1,4,7,10-tetraazacyclododecane-1,4,7-triyl]triacetate [Example 10] | 104 % of RC1
Gadolinium-2,2',2"-[(2S)-2-(4-butoxybenzyl)-10-(carboxymethyl)-1,4,7,10-tetraaza cyclododecane-1,4,7-triyl]triacetate [Example 12] | 110 % of RC1
Gadolinium-2,2',2"-[10-(carboxymethyl)-2-(4-ethoxybenzyl)-1,4,7,10-tetraazacyclododecane-1,4,7-triyl]triacetate [Example 8] | 143 % of RC1

same assay, conditions: rat hepatocyte uptake with OATP1B1/1B3 inhibitor Rifampicine, test item and inhibitor each 100 µM

Substance | Inhibition Rifampicine [% inhibition]
Gadolinium-2,2',2"-[10-(carboxymethyl)-2-(4-ethoxybenzyl)-1,4,7,10-tetraazacyclododecane-1,4,7-triyl]triacetate [Example 9] | 93
Gadolinium-2,2',2"-[(2S)-2-(4-butoxybenzyl)-10-(carboxymethyl)-1,4,7,10-tetraaza cyclododecane-1,4,7-triyl]triacetate [Example 13] | 86
Gadolinium-2,2',2"-[(2S)-10-(carboxymethyl)-2-(4-ethoxybenzyl)-1,4,7,10-tetraazacyclododecane-1,4,7-triyl]triacetate [Example 11] | 96
Gadolinium-2,2',2"-[(2S)-10-(carboxymethyl)-2-(4-ethoxybenzyl)-1,4,7,10-tetraazacyclododecane-1,4,7-triyl]triacetate [Example 10] | 96
Gadolinium-2,2',2"-[(2S)-2-(4-butoxybenzyl)-10-(carboxymethyl)-1,4,7,10-tetraaza cyclododecane-1,4,7-triyl]triacetate [Example 12] | 96
Gadolinium-2,2',2"-[10-(carboxymethyl)-2-(4-ethoxybenzyl)-1,4,7,10-tetraazacyclododecane-1,4,7-triyl]triacetate [Example 8] | 96

biological target: T1, OATP1B3; experiment: Uptake into stable transfected OATP1B3 HEK 293 cells; type: cell-based; conditions: OATP1B3-HEK 293 cell uptake with Rifampicine

Substance | Inhibition Rifampicine [% inhibition]
Gadolinium-2,2',2"-[10-(carboxymethyl)-2-(4-ethoxybenzyl)-1,4,7,10-tetraazacyclododecane-1,4,7-triyl]triacetate [Example 9] | 94
Gadolinium-2,2',2"-[(2S)-2-(4-butoxybenzyl)-10-(carboxymethyl)-1,4,7,10-tetraaza cyclododecane-1,4,7-triyl]triacetate [Example 13] | 98
Gadolinium-2,2',2"-[(2S)-10-(carboxymethyl)-2-(4-ethoxybenzyl)-1,4,7,10-tetraazacyclododecane-1,4,7-triyl]triacetate [Example 11] | 90
Gadolinium-2,2',2"-[(2S)-10-(carboxymethyl)-2-(4-ethoxybenzyl)-1,4,7,10-tetraazacyclododecane-1,4,7-triyl]triacetate [Example 10] | 96
Gadolinium-2,2',2"-[(2S)-2-(4-butoxybenzyl)-10-(carboxymethyl)-1,4,7,10-tetraaza cyclododecane-1,4,7-triyl]triacetate [Example 12] | 98
Gadolinium-2,2',2"-[10-(carboxymethyl)-2-(4-ethoxybenzyl)-1,4,7,10-tetraazacyclododecane-1,4,7-triyl]triacetate [Example 8] | 99
